According to PubChem BioAssay (NCI):
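48-hour exposure; five concentrations; linearly interpolated endpoints. Definition used: TGI = concentration required for complete inhibition of growth.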

Key:
Assay in all cases: DTP human tumour cell line panel, 48 h
[1] = test system: SK-OV-3 ovarian
[2] = test system: UACC-257 melanoma
[3] = test system: KM12 colon
[4] = test system: OVCAR-5 ovarian
[5] = test system: HCT-116 colon
[6] = test system: UO-31 renal
[7] = test system: SN12C renal
[8] = test system: IGROV1 ovarian
[9] = test system: MDA-MB-231 breast
[10] = test system: OVCAR-8 ovarian
[11] = test system: CAKI-1 renal
[12] = test system: T-47D breast
[13] = test system: HT29 colon
[14] = test system: MDA-MB-435
[15] = test system: SK-MEL-28 melanoma
[16] = test system: ACHN renal
[17] = test system: SR leukemia
[18] = test system: SK-MEL-2 melanoma
[19] = test system: NCI-H460 lung
[20] = test system: BT-549 breast
[21] = test system: NCI/ADR-RES ovarian
[22] = test system: LOX IMVI melanoma
[23] = test system: RXF 393 renal
[24] = test system: MDA-N
[25] = test system: SK-MEL-5 melanoma
[26] = test system: PC-3 prostate
[27] = test system: EKVX NSCLC
[28] = test system: SNB-75 CNS
[29] = test system: NCI-H23 lung
[30] = test system: M14 melanoma
[31] = test system: NCI-H522 lung
[32] = test system: CCRF-CEM leukemia
[33] = test system: A498 renal
[34] = test system: HOP-62 NSCLC
[35] = test system: OVCAR-3 ovarian
[36] = test system: A549 NSCLC
[37] = test system: SF-268 CNS
[38] = test system: MCF7 breast
[39] = test system: HCT-15 colon
[40] = test system: K-562 leukemia
[41] = test system: HCC-2998 colon
[42] = test system: SF-295 CNS
[43] = test system: HOP-92 NSCLC
[44] = test system: UACC-62 melanoma
[45] = test system: OVCAR-4 ovarian
[46] = test system: SNB-19 CNS
[47] = test system: SF-539 CNS
[48] = test system: NCI-H226 lung
[49] = test system: COLO 205 colon
[50] = test system: MOLT-4 leukemia
[51] = test system: 786-0 renal
[52] = test system: U251 CNS
[53] = test system: DU-145 prostate
[54] = test system: HL-60(TB) leukemia
[55] = test system: MALME-3M melanoma
[56] = test system: RPMI-8226 leukemia

Work on `C=C(C)C12OC3(c4ccccc4)OC1C1C4OC4(CO)C(O)C4(O)C(=O)C(C)=CC4C1(O3)C(C)C2OC(=O)/C=C/C=C/c1ccccc1` (stereo unspecified) yielded a TGI [1] of 4.73 µM, a TGI [2] of 1.94 µM and a TGI [3] of 0.862 µM. The TGI [4] was 0.597 µM, the TGI [5] was 0.887 µM and the TGI [6] was 0.576 µM. The TGI [7] was 0.37 µM, the TGI [8] was 2.4 µM and the TGI [9] was 0.264 µM. The TGI [10] was 1.15 µM, the TGI [11] was 1.52 µM and the TGI [12] was 4.84 µM. It also gave a TGI [13] of 0.22 µM, a TGI [14] of 0.742 µM and a TGI [15] of 1.55 µM. The TGI [16] was 0.557 µM, the TGI [17] was 0.385 µM and the TGI [18] was 1.89 µM. For the same compound, the TGI [19] was 3.04 µM, the TGI [20] was 0.97 µM and the TGI [21] was 1.38 µM. It also gave a TGI [22] of 0.411 µM, a TGI [23] of 1.07 µM and a TGI [24] of 0.817 µM. The TGI [25] was 0.989 µM, the TGI [26] was 0.62 µM and the TGI [27] was 1.13 µM. It also gave a TGI [28] of 1.15 µM, a TGI [29] of 1.4 µM and a TGI [30] of 0.409 µM. The TGI [31] was 1.1 µM, the TGI [32] was 1.5 µM and the TGI [33] was 0.183 µM. It also gave a TGI [34] of 1.65 µM, a TGI [35] of 0.316 µM and a TGI [36] of 2.39 µM. The TGI [37] was 1.25 µM, the TGI [38] was 0.911 µM and the TGI [39] was 1.98 µM. For the same compound, the TGI [40] was 2.35 µM, the TGI [41] was 0.246 µM and the TGI [42] was 1.09 µM. It also gave a TGI [43] of 0.836 µM, a TGI [44] of 1.29 µM and a TGI [45] of 0.697 µM. For the same compound, the TGI [46] was 5 µM, the TGI [47] was 1.52 µM and the TGI [48] was 1.06 µM. For the same compound, the TGI [49] was 0.0416 µM, the TGI [50] was 2.34 µM and the TGI [51] was 0.699 µM. For the same compound, the TGI [52] was 0.894 µM, the TGI [53] was 1.47 µM and the TGI [54] was 0.107 µM. It also gave a TGI [55] of 1.24 µM and a TGI [56] of 0.519 µM.
